Data published in patent US20080234188A1, “Antimicrobial Peptides” (The Hospital for Sick Children, priority 2001, published 2008).
In brackets after ≈: the same amount, converted by molar mass. Where a SMILES comes first, the peptide text is derived from it.

Assays:
[1] = system: C498: E. coli, wild type strain; type: cell-based; settings: C498: , wild type strain
Method in brief: (§1)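 Broth microdilution in Mueller Hinton Broth, 2−7×10^5 CFU/ml, peptides added from 10× stocks serially diluted in 0.01% acetic acid, 0.2% BSA. Incubated at 37° C for 18-24 hours, rechecked at 40-48 hours; growth read visually and at 600 nm.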

[2] = system: C500: E. coli, antibiotic strain; type: cell-based; settings: C500: , antibiotic strain
Method in brief: as §1

[3] = system: Corynebacterium xerosis (C875); type: cell-based
Method in brief: (§2)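 Broth microdilution in Mueller Hinton Broth, inoculum 2−7×10^5 CFU/ml. Peptides serially doubled in 0.01% acetic acid, 0.2% BSA and added at 10× final concentration. Incubation 37° C for 18-24 h, rechecked at 40-48 h; growth read visually and at 600 nm.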

[4] = system: Staphylococcus epidermidis (C621); type: cell-based; settings: C621
Method in brief: as §2

E. coli DC2 = assay: Assay of antibacterial activity (MIC), E. coli DC2; type: cell-based, Escherichia coli
Method in brief: (§3)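 MIC by microdilution: MHB, 2−7×10^5 CFU/ml, peptide 10× stocks in 0.01% AcOH/0.2% BSA (doubling series), 37° C 18-24 h, recheck 40-48 h, visual + OD600 read.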

E. coli UB1005 = type: cell-based, Escherichia coli; settings: UB1005
Method in brief: as §3

E. coli ATCC25922 = type: cell-based
Text: (§4) The bacterial strains used were E. coli C498, E. coli C500, Escherichia coli UB1005 and its antibiotic supersusceptible derivative DC2 (22); a clinical isolate of Staphylococcus epidermidis (C621); coryneform bacterial strain Corynebacterium xerosis (C875); and E. coli ATCC 25922, Staphylococcus aureus ATCC 25923, Enterococcus faecalis ATCC 29212, Bacillus subtilis ATCC 6633 and Pseudomonas aeruginosa ATCC 27853, all from American Type Culture Collection.
(§5) Peptide antibacterial activity was assessed by the method of R. Hancock et al. (Wu & Hancock (1999), J. Biol. Chem., v. 274, pp. 29-35). Test strains of bacteria from Mueller Hinton agar (MHA) plates were inoculated into 5 ml Mueller Hinton Broth (MHB) in tubes and grown overnight at 37° C. on a shaker (180 rpm). Serial dilutions of test peptides (at 10 times the required test concentrations) were made in 0.01% acetic acid, 0.2% BSA, in polypropylene or coated glass tubes as follows: the test peptide was (a) dissolved in distilled water at 20 times the required maximum concentration (enough final volume for all tests to be performed on a given day); (b) diluted into an equal volume of 0.02% acetic acid, 0.4% BSA to give 10 times the required maximum concentration; (c) serial doubling dilutions were performed in 0.01% acetic acid, 0.2% BSA to provide serial dilutions of peptides at 10 times the required test concentrations, e.g., 640, 320, 160, . . . 2.5 μg/ml. (No deleterious effects of long-term storage of peptides in these media have been detected). Overnight bacterial cultures were diluted in MHB to give 2−7×10^5 colony forming units/ml. Bacterial suspension (100 μl) was dispensed in each well; controls without bacteria were maintained in parallel. To each well was added 11 μl of 10× test peptide and plates were incubated at 37° C. for 18-24 hours, and checked again at 40-48 hours. Plates were read visually and at 600 nm in a microplate reader (Molecular Devices).
(§6) A further number of the peptides of the invention were tested for antimicrobial activity against a range of Gram-positive and Gram-negative bacteria by the assay described immediately before Example 1.

P. aeruginosa ATCC27853 = type: cell-based, Pseudomonas aeruginosa
Text: as §4, §5, §6

S. aureus ATCC25923 = type: cell-based, Staphylococcus aureus
Text: as §4, §5, §6

E. faecalis ATCC29212 = type: cell-based, Enterococcus faecalis
Text: as §4, §5, §6

B. subtilis ATCC6633 = type: cell-based, Bacillus subtilis
Text: as §4, §5, §6

Human RBC = type: cell-based
Method in brief: (§7)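 Washed rabbit or human erythrocytes (4% v/v in PBS pH 7.3) incubated with peptide dilutions 1 h at 37° C. Hemoglobin release read at 540 nm in supernatant, relative to PBS control and 0.1% Triton X-100 as 100% lysis; peptides tested at […].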

Rabbit RBC = type: cell-based
Method in brief: as §7

## C[C@H](NC(=O)[C@H](C)NC(=O)[C@H](C)NC(=O)[C@H](Cc1ccccc1)NC(=O)[C@H](C)NC(=O)[C@H](C)NC(=O)[C@H](C)NC(=O)[C@H](CCCCN)NC(=O)[C@@H](N)CCCCN)C(=O)N[C@@H](C)C(=O)N[C@@H](C)C(=O)N[C@@H](Cc1ccccc1)C(=O)N[C@@H](C)C(=O)N[C@@H](C)C(=O)N[C@@H](Cc1c[nH]c2ccccc12)C(=O)N[C@@H](C)C(=O)N[C@@H](C)C(=O)N[C@@H](Cc1ccccc1)C(=O)N[C@@H](C)C(=O)N[C@@H](C)C(=O)N[C@@H](C)C(=O)N[C@@H](CCCCN)C(=O)N[C@@H](CCCCN)C(=O)N[C@@H](CCCCN)C(=O)N[C@@H](CCCCN)C(N)=O [Peptide F25] (H-KKAAAFAAAAAFAAWAAFAAAKKKK-NH2; N-terminus assumed)
[1]
  MIC C498: 8 µM (≈ 19.8 µg/mL)
[2]
  MIC C500: 4 µM (≈ 9.92 µg/mL)
[3]
  MIC C875: 0.25 µM (≈ 0.62 µg/mL)
  MIC C. xerosis C875: <0.25 µM
[4]
  MIC C621: 0.5 to 2 µM
  MIC S. epidermidis C621: 2 µM (≈ 4.96 µg/mL)
E. coli DC2; Table 3, Gram-negative
  MIC E. coli DC2: 4 µM (≈ 9.92 µg/mL)
E. coli DC2; Table 5A
  MIC E. coli DC2: 4 µM (≈ 9.92 µg/mL)
E. coli UB1005
  MIC E. coli UB1005: 16 µM (≈ 39.7 µg/mL)
E. coli ATCC25922
  MIC E. coli ATCC25922: >32 µM
P. aeruginosa ATCC27853
  MIC P. aeruginosa ATCC27853: 8 µM (≈ 19.8 µg/mL)
S. aureus ATCC25923
  MIC S. aureus ATCC25923: >32 µM
E. faecalis ATCC29212
  MIC E. faecalis ATCC29212: >32 µM
B. subtilis ATCC6633
  MIC B. subtilis ATCC6633: 1 µM (≈ 2.48 µg/mL)
Human RBC
  Human RBC (% lysis) 50 μM: 0 % lysis
  Human RBC (% lysis) 200 μM: 1 % lysis
Rabbit RBC
  Rabbit RBC (% lysis) 50 μM: 0 % lysis
  Rabbit RBC (% lysis) 200 μM: 4 % lysis
